We go through two compounds from patent US10577337B2, “Compositions and methods of treatment with prodrugs of tizoxanide, an analogue or salt thereof” (Romark Laboratories, L.C., priority 2014, dated 2020).

The structures appear in SMILES notation.

The conditions of data set [1]: humans, cited from earlier work.
The nature of data set [2]: Aqueous solubility. The data set is classed as physicochemical.

As for `O=C(Nc1ncc([N+](=O)[O-])s1)c1ccccc1O` [tizoxanide], the “half-life of tizoxanide in plasma” value in data set [1] (after oral nitazoxanide or nitazoxanide plus tizoxanide) is on record as “approximately 1.5 hours”.

Turning to `CC(=O)Oc1ccccc1C(=O)Nc1ncc([N+](=O)[O-])s1` [nitazoxanide, 2-(acetolyloxy)-N-(5-nitro-2-thiazolyl)benzamide], the “effect of food on absorption” value in data set [1] (administered with food) was “approximately doubled with food”. The “aqueous solubility, descriptive term” value in data set [2] was “practically insoluble”. In data set [2] (aqueous), this compound displayed a solubility of under 100 µg/mL.

As a reminder, the solubility is how much of the substance goes into solution per volume. Lower therefore signals a poorly soluble substance.
